Data published in patent publication US6756209B1, “7-Alkoxycoumarins as CYP2C9 substrates and activity assay” (SmithKline Beecham p.l.c., priority 1998, dated 2004).

- melting point: 198.5 to 200 °C
Compound: COc1ccc2c(C(F)(F)F)c(CC(=O)O)c(=O)oc2c1
